Article PMC4341984 (Biochemistry, 2014)

Target: T1, UPPSBf (undecaprenyl pyrophosphate synthase) (Bacteroides fragilis, UniProt Q5LI17)
T1 sequence (Q5LI17 1-244): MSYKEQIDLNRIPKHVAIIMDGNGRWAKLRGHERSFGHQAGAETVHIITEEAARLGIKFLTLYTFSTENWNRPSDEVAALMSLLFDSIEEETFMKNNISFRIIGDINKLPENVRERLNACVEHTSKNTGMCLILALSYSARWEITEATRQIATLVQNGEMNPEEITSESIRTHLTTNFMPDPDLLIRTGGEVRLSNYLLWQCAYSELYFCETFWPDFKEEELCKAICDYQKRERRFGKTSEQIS
Assay: fluorescence plate assay, inhibition of […] 2AA-GPP elongation
Assay type: biochemical

IC50: 1000 ± 200 µM
Structure (SMILES): O=P(O)(O)OP(=O)(O)O [diphosphate]
